Laboratory results from US7041684B2, “Selective β3 adrenergic agonists” (Eli Lilly and Company, priority 1996, dated 2006).
Structures can show the parent of a compound that is named as a salt.

Row | SMILES | melting point
1 | CC(C)(CNC(=O)c1ccc(Oc2ccc(C#N)cc2)cc1)NC[C@H](O)COc1cccc2[nH]c3ccccc3c12 (as salt: HCl) | 120 to 130 °C (dec.)
2 | CCOC(=O)COc1ccc(OCCNC[C@H](O)COc2cccc3[nH]c4ccccc4c23)cc1 (as salt: HCl) | 57 to 61 °C (dec.)
